Experimental data taken from article PMC10247784, “Physiological activation of human and mouse bitter taste receptors by bile acids” (Communications Biology, 2023).

Tested on: HEK293T-Gα16gust44 cells transfected with empty vector (mock)
Test: Calcium imaging assay (FLIPR), empty vector control (mock)
Format: cell-based
Method: This set of bile acids was chosen because of their commercial availability in high purities, their diversity within the class of bile acids and their previous detection and quantitation in human blood. Stock solutions were prepared in DMSO.
As basal growth medium for the HEK293T-Gα16gust44 cell line[17],[59] served Dulbecco’s modified eagle medium (DMEM) (Thermo Fisher Scientific, Darmstadt, Germany) supplemented with 10 % fetal bovine serum (Sigma-Aldrich, Steinheim, Germany), 2 mM L-glutamine (Sigma-Aldrich, Steinheim, Germany), 100 units/ml penicillin (Sigma Aldrich, Steinheim, Germany) and 100 µg/ml streptomycin (Sigma Aldrich, Steinheim, Germany). Growth conditions were 37 °C, 5 % CO2 and saturated air-humidity[60].
HEK293T-Gα16gust44 cells were seeded on poly-D-lysine (10 µg/ml) coated 96-well plates to reach a confluence of 40-60 % the next day. For transient transfection 150 ng of plasmid DNA containing the receptor of interest and 0.3 µl lipofectamine 2000 (Thermo Fisher Scientific, Darmstadt, Germany) per well were used and transfection took place according to the manual of lipofectamine 2000. […] The empty vector DNA (mock) was transfected as negative control[14],[41].
Cells were loaded using the calcium-sensitive fluorescent dye Fluo-4-AM (Abcam, Cambridge, Great Britain) in the presence of 2.5 mM probenecid (Sigma-Aldrich, Steinheim, Germany) the day after transfection[13],[41]. 1 h after loading, cells were washed with C1 buffer using a BioTek Cell Washer, incubated in the dark for half an hour and washed again. For automated agonist application and measurement of fluorescence changes, a FLIPR^TETRA device (Molecular Devices, San José, United States) was used. Viability of cells was tested by application of 100 nM Somatostatin 14 (Bachem, Bubendorf, Switzerland)[42].
Measured data were negative control corrected by subtracting the signal of the mock-transfected cells and exported to Microsoft Excel using the FLIPR software ScreenWorks 4.2. In Microsoft Excel software, standardization of maximum fluorescence intensities to the basal fluorescence and normalization to the buffer-only control was done to calculate the relative fluorescence changes (ΔF/F).
Initial screening experiments performed in duplicate wells were confirmed by at least one replication and representative traces were selected for display. All dose-response relationships were determined by three independent experiments (biological replicates) performed in duplicates (technical replicates). Threshold concentrations, defined as lowest substance concentrations leading to statistically significant elevated fluorescence changes in receptor-transfected cells compared with empty vector-transfected cells, were determined using SigmaPlot with Student’s t-test to evaluate statistical significance (p < 0.01).

## C[C@H](CCC(=O)NCCS(=O)(=O)O)[C@H]1CC[C@H]2[C@@H]3CC[C@@H]4C[C@H](O)CC[C@]4(C)[C@H]3CC[C@]12C [Taurolithocholic Acid, taurolithocholic acid]
Mock (sheet Tas2r144), conc. 0,01 mM
  Δ F/F: 0.0005692
Mock (sheet Tas2r144), conc. 0,1 mM
  Δ F/F: 0.004595
Mock (sheet Tas2r144), conc. 0,03 mM
  Δ F/F: 0.0003601
Mock (sheet Tas2r144), conc. 0,00003 mM
  Δ F/F: 0.006114
Mock (sheet Tas2r144), conc. 0,0001 mM
  Δ F/F: 0.006504
Mock (sheet Tas2r144), conc. 0,0003 mM
  Δ F/F: 0.0008548
Mock (sheet Tas2r144), conc. 0,001 mM
  Δ F/F: 0.004624
Mock (sheet Tas2r144), conc. 0,003 mM
  Δ F/F: 0.001997
Mock, sheet TAS2R4, conc. 0,01 mM
  Δ F/F: -0.008514
Mock, sheet TAS2R4, conc. 0,1 mM
  Δ F/F: -0.00794
Mock, sheet TAS2R4, conc. 0,03 mM
  Δ F/F: -0.01099
Mock, sheet TAS2R4, conc. 0,000001 mM
  Δ F/F: -0.003137
Mock, sheet TAS2R4, conc. 0,000003 mM
  Δ F/F: -0.007155
Mock, sheet TAS2R4, conc. 0,00001 mM
  Δ F/F: -0.00504
Mock, sheet TAS2R4, conc. 0,00003 mM
  Δ F/F: -0.003977
Mock, sheet TAS2R4, conc. 0,0001 mM
  Δ F/F: -0.003234
Mock, sheet TAS2R4, conc. 0,0003 mM
  Δ F/F: -0.004056
Mock, sheet TAS2R4, conc. 0,001 mM
  Δ F/F: -0.007019
Mock, sheet TAS2R14, conc. 0,01 mM
  Δ F/F: -0.03147
Mock, sheet TAS2R14, conc. 0,00001 mM
  Δ F/F: -0.004277
Mock, sheet TAS2R14, conc. 0,00003 mM
  Δ F/F: -0.0006944
Mock, sheet TAS2R14, conc. 0,0001 mM
  Δ F/F: -0.01329
Mock, sheet TAS2R14, conc. 0,0003 mM
  Δ F/F: -0.01832
Mock, sheet TAS2R14, conc. 0,001 mM
  Δ F/F: -0.01976
Mock, sheet TAS2R14, conc. 0,003 mM
  Δ F/F: -0.0246
Mock, sheet TAS2R46, conc. 0,01 mM
  Δ F/F: -0.02971
Mock, sheet TAS2R46, conc. 0,1 mM
  Δ F/F: -0.009753
Mock, sheet TAS2R46, conc. 0,03 mM
  Δ F/F: -0.03052
Mock, sheet TAS2R46, conc. 0,0001 mM
  Δ F/F: -0.0128
Mock, sheet TAS2R46, conc. 0,0003 mM
  Δ F/F: -0.01683
Mock, sheet TAS2R46, conc. 0,001 mM
  Δ F/F: -0.02076
Mock, sheet TAS2R46, conc. 0,003 mM
  Δ F/F: -0.0306
Mock, sheet Tas2r108, conc. 0,01 mM
  Δ F/F: -0.02695
Mock, sheet Tas2r108, conc. 0,1 mM
  Δ F/F: -0.01465
Mock, sheet Tas2r108, conc. 0,03 mM
  Δ F/F: -0.03132
Mock, sheet Tas2r108, conc. 0,00001 mM
  Δ F/F: -0.01948
Mock, sheet Tas2r108, conc. 0,00003 mM
  Δ F/F: -0.01658
Mock, sheet Tas2r108, conc. 0,0001 mM
  Δ F/F: -0.01596
Mock, sheet Tas2r108, conc. 0,0003 mM
  Δ F/F: -0.01689
Mock, sheet Tas2r108, conc. 0,001 mM
  Δ F/F: -0.02887
Mock, sheet Tas2r108, conc. 0,003 mM
  Δ F/F: -0.03792
conc. 0,01 mM, Mock (sheet TAS2R1)
  Δ F/F: 0.0009651
conc. 0,03 mM, Mock (sheet TAS2R1)
  Δ F/F: -0.0002852
conc. 0,000001 mM, Mock (sheet TAS2R1)
  Δ F/F: 0.0003466
conc. 0,000003 mM, Mock (sheet TAS2R1)
  Δ F/F: 0.0002774
conc. 0,00001 mM, Mock (sheet TAS2R1)
  Δ F/F: -0.0001438
conc. 0,00003 mM, Mock (sheet TAS2R1)
  Δ F/F: 0.0007699
conc. 0,0001 mM, Mock (sheet TAS2R1)
  Δ F/F: -0.00173
conc. 0,0003 mM, Mock (sheet TAS2R1)
  Δ F/F: 0.00111
conc. 0,001 mM, Mock (sheet TAS2R1)
  Δ F/F: 0.001414
conc. 0,003 mM, Mock (sheet TAS2R1)
  Δ F/F: -0.000959
